The nature of this series: Determination of bio-accumulation: urinary clearance pharmacokinetic study in rats. To be noted: oral gavage, 73 micro Moles per kg body weight.

Experimental: Determination of Bio-Accumulation
The fluorinated surfactants were evaluated for urinary clearance using a pharmacokinetic study in rats. The goal was to measure the total amount of parent compound eliminated via urinary output and estimate the rate of elimination.
The study utilized male Sprague Dawley rats, 6 to 8 weeks of age, and approximately 200 to 250 g body weight at study onset. The test compounds of table 2 were administered at a dose of 73 micro Moles per kg body weight in rats (N=3 animals per tested compound). All test compounds were prepared in sterile deionized water and given to rats via oral gavage. After test compounds administration, the rats were housed individually in metabolism cages for urine collection: 0 to 6 hours, 6 to 24 hours, 24 to 48 hours and 72 to 96 hours. Animals were observed throughout the study for clinical signs of toxicity. Gross necropsy was performed at the termination of each study (96 hours post-dose) with sera and liver samples being retained from each animal.
The concentration of the parent compound or metabolites thereof were quantitatively measured via fluorine NMR on each urine sample for each animal at each time point based on internally added standards.
T1/2 is the renal half-life and is the time required for the amount of a particular substance in a biological system to be reduced to one half of its value by biological processes when the rate of removal is approximately exponential. In these examples the value of T1/2 is calculated by exponential least squares curve fitting (y=Ae^Bx and T1/2=0.693/B) where y represents the concentration of analyte in urine and x represents time in hours.

As to `N.O=C(O)C(F)(F)C(F)(F)C(F)(F)C(F)(F)C(F)(F)C(F)(F)C(F)(F)F` [APFO, ammonium perfluorooctanoic acid, reference compound], under “clinical signs of toxicity and gross necropsy at 96 hours post-dose”, the “Compound-related Effects” value is reported as “Hepatomegaly”.

As for `N.O=C(O)C(F)OC(F)(F)C(F)(F)C(F)(F)OC(F)(F)F` (stereo not drawn) [Compound 3, CF3—O—CF2—CF2—CF2—O—CHF—COONH4], under “recovery in urine after 96 h”, the “% Recovery (96 h)” value was determined as 95%. Also, the “T½ (renal elimination half-life)” value (urine measured by fluorine NMR, exponential least squares curve fitting) came out at 11 h.
